The values that follow come from a melting point compilation (Tetko et al.; mined from patent text by program, amines drawn as free bases though some values may be those of a salt).

For `CCCCCCCCCCCCc1nnn(CC(=O)Nc2c(OC)cc(OC)cc2OC)n1`, the melting point fell in the range of 144 to 146 °C.

Regarding `CCOC(=O)C1=C(C)Nc2nc(N(C)C)nc(N(C)C)c2C1c1cccc([N+](=O)[O-])c1` (stereo not given), the melting point amounted to 149 °C.

The compound `Cn1nccc1CCS(=O)Cc1ccc(OCc2coc(/C=C/c3ccc(OC(F)(F)F)cc3)n2)cc1` (stereo not given) came in with a melting point of 138 to 139 °C.

In turn, `CN1Cc2ccc(Cl)cc2P1(=O)c1ccccc1` (stereo not given) had a melting point of 159 to 162 °C.

For the compound `CCOC(=O)C(=O)Nc1sccc1C(N)=O`, the melting point lay in the range of 186 to 187 °C.

`Nc1nsc(Nc2c(Cl)cccc2Cl)n1`: the melting point is 178 to 179 °C.

For `COc1ccc(CC2COCc3nc4c(N)nc5ccccc5c4n32)cc1` (stereo not given), the melting point lay within 115 to 130 °C.

`CC(C)(C)OC(=O)c1sc(Oc2ccc3c(c2)OCO3)c2c1CCc1cnoc1-2` returned a melting point of 165 to 166 °C.

In turn, `COc1ccc(C2=C(C(=O)N3CCOCC3)C(=O)c3ccccc32)cc1OC` registered a melting point of 71.5 °C.

Compound `Cn1c(=O)c(-c2c(Cl)cccc2Cl)cc2cnc(N)nc21` registered a melting point of 235 to 237 °C.

In the case of `Nc1c(CO)cccc1[N+](=O)[O-]`, the melting point came to 100 °C.

Turning to `NC(N)=Nc1nc(-c2cccc(N)n2)cs1`, the melting point is 242 °C.

Consider `Cc1cccc(-c2nc3ccc(OCCN4CCN(C)CC4)cc3n2Cc2ccccc2)c1`, for which the melting point came out at 91 °C.

Compound `CCN(CC)CCCNC(=O)Cn1ncc(-c2ccc(N)cc2)c1-c1ccccc1` returned a melting point of 75 to 76 °C.

Turning to `CC(=O)NCc1ccc(Cl)nc1`, the melting point lay in the range of 76 to 77 °C.

In the case of `CNc1sc(Cl)cc1C(=O)c1ccccc1F`, the melting point lay within 93 to 94 °C.

For the compound `Cc1ccc(S(=O)(=O)NCCCN(C)S(=O)(=O)c2ccc(C)cc2)cc1`, the melting point stood at 93 °C.

In the case of `O=C(Nc1ccc2c(c1)CCC2=O)c1cc(Cl)ccc1Cl`, the melting point lay in the range of 218 to 221 °C.

Turning to `O=[N+]([O-])c1cccc(-c2ccncc2)c1`, the melting point lay within 109 to 110 °C.

Compound `Cc1ccc2c(c1)c1cc(Br)ccc1n2C(=O)OC(C)(C)C` gave a melting point of 96 °C.

For the compound `N#Cc1cccc(N2CCc3cc(Cl)ccc32)c1`, the melting point was in the range of 120 to 121 °C.

Compound `CC1(C)CC(=O)C(S(=O)(=O)Cc2ccc(Cl)cc2)=C(O)C1` yielded a melting point of 111 to 113 °C.

Compound `CC(=Cc1ccc(C(=O)O)cc1)[N+](=O)[O-]` had a melting point of 212 to 214 °C.

`Nc1ccc(N2CCCCC2)c(C(=O)O)c1` showed a melting point of 232 to 235 °C.

Regarding `CC(=O)c1nc(-c2ccc(O)cc2)n(C)c1C`, the melting point was in the range of 198 to 202 °C.

`COC(=O)c1nc(-c2ccc(O)nc2)cc(N)c1Cl` gave a melting point of 251 to 252 °C.

`CC(=O)OCC(=O)C1CCC2C3CCC4CC(OS(=O)(=O)c5ccc(C)cc5)CCC4(C)C3C(=O)CC12C` (stereo not given) yielded a melting point of 155 to 156 °C.

`O=S1N=CC(NCc2ccncc2)=N1` (stereo not given) returned a melting point of 129 to 130 °C.

Turning to `CCOC(=O)c1ccccc1S(=O)(=O)NC(=O)Nc1nc(Cl)cc(OC(F)(F)F)n1`, the melting point lay in the range of 148 to 151 °C.

For the compound `COc1ccc(-n2c(-c3ccc(Cl)cc3Cl)nc(C(=O)O)c2C)cc1`, the melting point was 189 to 191 °C.

Compound `Cc1c(C)c2ccc(CCCCCN3CCN(c4cccc(Cl)c4Cl)CC3)nc2[nH]c1=O` yielded a melting point of 202 to 203 °C.

Take `CCOC(=O)C(CCc1ccccc1)N[C@H]1CSC(c2ccccc2)N(CC(=O)O)C1=O` (stereo not given in full): the melting point lay within 47 to 52 °C.

`ClCCOc1ccc2c(c1)oc1cc(Cl)ccc12` registered a melting point of 105 to 107 °C.

`Nc1nc(NC2CCCCCCC2)c2ncn(C3C=CC(CO)C3)c2n1` (stereo not given) had a melting point of 171 to 173 °C.

The compound `CCCCCCCCCCCCC(Oc1ccc2c(c1)OCO2)C(=O)O` (stereo not given) returned a melting point of 70 to 72 °C.

`NS(=O)(=O)c1cc2c(Cl)nccc2o1` gave a melting point of 192 to 194 °C.

The compound `CCON1C(C)(C)CC(O)CC1(C)C` yielded a melting point of 86 to 88 °C.

`NC(CCCl)C(=O)c1ccccc1` (stereo not given): the melting point fell in the range of 44 to 46 °C.

Regarding `CCOC(=O)c1cnn(C)c1C(=O)Nc1ccn2nc(-c3ccccc3)nc2c1`, the melting point lay within 242 to 243 °C.

Compound `CN1CCN(C(=O)c2ccc(-c3cnc4c(c3)N(Cc3cc(F)ccc3F)CCN4)cc2)CC1` yielded a melting point of 180 °C.

Turning to `c1ccc(Nc2nc(-c3cccs3)nc3ccccc23)cc1`, the melting point was 137 to 139 °C.

Regarding `O=C(Nc1cccnn1)N1CCN(c2nccc(-c3ccc(F)c(F)c3)n2)CC1`, the melting point was in the range of 218 to 219 °C.

For `CS(=O)(=O)Nc1ccc([N+](=O)[O-])cc1OC1CCSCC1`, the melting point stood at 200 °C.

Compound `CS(=O)(=O)c1ccc(C(Cc2ccccc2F)C(=O)Nc2nc3ccccc3o2)cc1` (stereo not given) came in with a melting point of 99 to 100 °C.

Compound `Nc1sc2cccnc2c1N` displayed a melting point of 204 to 209 °C.

`CC(C)Sc1cc2c3cc(SC(C)C)c(SC(C)C)cc3c3cc(SC(C)C)c(SC(C)C)cc3c2cc1SC(C)C` yielded a melting point of 165 to 168 °C.

Consider `CCCNCC(O)c1cccc(F)c1` (stereo not given), for which the melting point lay in the range of 46 to 47.3 °C.

`COCc1cnc2nc(N)nc(N)c2n1` gave a melting point of 248 to 251 °C.

`CC(C)CN(C(=O)N(CCCl)N=O)C1OC(OC2CCCCC2)C(O)C(O)C1O` (stereo not given): the melting point fell in the range of 74 to 76 °C.

In the case of `COc1oc(=O)n(-c2ccccc2)c1C`, the melting point lay within 81 to 83.5 °C.

In the case of `CC(=O)Nc1ccccc1CS(=O)c1nccn1Cc1ccccn1` (stereo not given), the melting point was 146 to 148 °C.

For `O=C(O)C(=O)c1oc2cccc(OCc3ccc(F)cc3)c2c1O`, the melting point fell in the range of 195 to 200 °C.

`CC(O)c1cccc(NC(=O)NCC(=O)N(c2ccccc2)C(C)C(=O)N2CCCc3ccccc32)c1` (mixture of isomers) displayed a melting point of 170 °C.

`COc1ccccc1C(=O)Nc1ccc(N2CCCC2)cc1C(C)=O` gave a melting point of 168 to 170 °C.

As for `CCOC(=O)c1cn(CC)c2nc(N3CCC(NCC(C)=O)C3)c(F)cc2c1=O` (stereo not given), the melting point lay in the range of 212 to 213 °C.

As to `Cc1c[nH]c2c(CCC#N)cccc12`, the melting point is 146 to 148 °C.

`Cc1cc(Cn2nnn(-c3ccc(C(F)(F)F)cc3)c2=O)ccc1NC(=O)c1cccc(I)c1C(=O)NC(C)(C)CS(C)(=O)=O` came in with a melting point of 108 to 112 °C.

Take `CCCCCCCCN1C=C(C)C(=c2c(C)cc(=CC=C3C=C(C(C)(C)C)C(=O)C(C(C)(C)C)=C3)cc2C)C(C)=C1`: the melting point was over 280 °C.

For `COc1cccc([C@]23CCN(C)C(=O)[C@@H]2CCC(=O)C3)c1` (relative stereo), the melting point fell in the range of 156 to 158 °C.

`CCCOC(=O)N(C)S(=O)(=O)c1cc([N+](=O)[O-])c(N(CCC)CCC)c([N+](=O)[O-])c1` gave a melting point of 110 to 113 °C.

`COc1cc2c(CCNC(C)=O)c[nH]c2cc1F` gave a melting point of 158 to 159 °C.

As for `CCC(C#N)(C(N)=O)c1ccccc1` (stereo not given), the melting point lay within 116 to 117 °C.

With `C=C(C)c1cn(C2OC(CO)C(O)C2O)c(=O)[nH]c1=O` (stereo not given), the melting point was in the range of 212 to 215 °C.

On to `Cc1ccc2c(c1)NC(=O)c1cccc3c1N2CC3`, for which the melting point lay in the range of 238 to 240 °C.

For the compound `CCCc1[nH]c(C(=O)OCC)c(CCC)c1C`, the melting point was 78 to 80 °C.

For orientation: melting point means the temperature, or range, at which the solid turns liquid.
